Assay results from patent EP4635500A1, “THERAPEUTIC AGENT FOR BACTERIAL INFECTION” (Sumitomo Pharma Co., Ltd., priority 2022, dated 2024).
Values joined by “and” are separate entries in the source; they are usually repeats but may differ in a detail not shown here. Identical values can stand only once. Like-named read-outs stand apart in the source and are kept apart here.

How the values were obtained:
Format in all cases: cell-based
[1] = test system: Enterobacter cloacae; assay: MIC, broth microdilution, standard strains and Japanese clinical isolates (Example 5, Table 4); conditions: IMP-1
[2] = test system: Enterobacter hormaechei; assay: as above; conditions: ATCCBAA2082; KUB4001 Enterobacter hormaechei ATCC BAA-2082, KPC-2
[3] = test system: Providencia rettgeri; assay: as above; conditions: ATCCBAA2525; KUB4010 Providencia rettgeri ATCC BAA-2525, OXA-181
[4] = test system: Enterobacterales; assay: MIC, broth microdilution, CDC/FDA Antibiotic Resistance Isolate Bank (Example 7, Tables 8, 11, 12)

C[C@@H](O)[C@H]1C(=O)N2C(C(=O)O)=C(S[C@@H]3CN[C@H](C(=O)N(C)C)C3)[C@H](C)[C@H]12 [MEPM, meropenem]
8 µg/mL: MIC ([4]; Enterobacter cloacae, KUB No. 5633, AR Bank# 136, KPC-3, read-out: MIC) | MIC ([4]; Escherichia coli, KUB No. 5646, AR Bank# 149, NDM-7, read-out: MIC) | MIC ([4]; Escherichia coli, KUB No. 5648, AR Bank# 151, NDM-5, read-out: MIC)
4 µg/mL: MIC ([1]; KUB3610 Enterobacter cloacae Clinical isolate) | MIC ([4]; Enterobacter cloacae, KUB No. 5651, AR Bank# 154, VIM-1, read-out: MIC) | MIC ([4]; Enterobacter cloacae, KUB No. 5660, AR Bank# 163, KPC-2, read-out: MIC) | MIC ([4]; Enterobacter cloacae, KUB No. 5808, AR Bank# 502, IMP-8, read-out: MIC)
16 µg/mL: MIC ([1]; KUB3609 Enterobacter cloacae Clinical isolate) | MIC [2] | MIC ([4]; Citrobacter freundii) | MIC ([4]; Enterobacter cloacae, KUB No. 5792, AR Bank# 448, NDM-1, read-out: MIC)
32 µg/mL: MIC ([4]; Enterobacter cloacae, Enterobacter cloacae complex, KUB No. 5661, AR Bank# 164, NMC-A, read-out: MIC) | MIC ([4]; Escherichia coli, KUB No. 5634, AR Bank# 137, NDM-6, read-out: MIC) | MIC ([4]; Escherichia coli, KUB No. 5659, AR Bank# 162, NDM-7, read-out: MIC) | MIC ([4]; Escherichia coli, KUB No. 5781, AR Bank# 435, NDM-1, read-out: MIC)
≤ 0.06 µg/mL: MIC ([4]; Enterobacter cloacae, KUB No. 5557, AR Bank # 60, no carbapenemase gene, read-out: MIC) | MIC ([4]; Enterobacter cloacae, KUB No. 5570, AR Bank # 73, no carbapenemase gene, read-out: MIC) | MIC ([4]; Escherichia coli, KUB No. 5764, AR Bank# 368, no carbapenemase genes, read-out: MIC) | MIC ([4]; Escherichia coli, KUB No. 5765, AR Bank# 369, no carbapenemase genes, read-out: MIC) | MIC ([4]; Escherichia coli, KUB No. 5766, AR Bank# 370, no carbapenemase genes, read-out: MIC) | MIC ([4]; Escherichia coli, KUB No. 5767, AR Bank# 371, no carbapenemase genes, read-out: MIC) | MIC ([4]; Escherichia coli, KUB No. 5768, AR Bank# 372, no carbapenemase genes, read-out: MIC) | MIC ([4]; Escherichia coli, KUB No. 5769, AR Bank# 373, no carbapenemase genes, read-out: MIC) | MIC ([4]; Escherichia coli, KUB No. 5770, AR Bank# 374, no carbapenemase genes, read-out: MIC) | MIC ([4]; Escherichia coli, KUB No. 5774, AR Bank# 378, no carbapenemase genes, read-out: MIC) | MIC ([4]; Escherichia coli, KUB No. 5779, AR Bank# 433, no carbapenemase genes, read-out: MIC) | MIC ([4]; Escherichia coli, KUB No. 5780, AR Bank# 434, no carbapenemase genes, read-out: MIC) | MIC ([4]; Escherichia coli, KUB No. 5782, AR Bank# 436, no carbapenemase genes, read-out: MIC)
0.12 µg/mL: MIC ([4]; Enterobacter cloacae, KUB No. 5529, AR Bank # 32, KPC-3, read-out: MIC) | MIC ([4]; Enterobacter cloacae, KUB No. 5569, AR Bank # 72, no carbapenemase gene, read-out: MIC) | MIC ([4]; Enterobacter cloacae, KUB No. 5778, AR Bank# 432, no carbapenemase genes, read-out: MIC)
32 µg/mL and >32 µg/mL: MIC90 [4]
> 32 µg/mL: MIC ([4]; Enterobacter cloacae, KUB No. 5535, AR Bank # 38, NDM-1, read-out: MIC) | MIC ([4]; Escherichia coli, KUB No. 5647, AR Bank# 150, NDM-5, read-out: MIC)
1 µg/mL: MIC ([4]; Enterobacter cloacae, KUB No. 5590, AR Bank # 93, KPC-6, read-out: MIC) | MIC ([4]; Enterobacter cloacae, KUB No. 5762, AR Bank# 366, KPC-2, read-out: MIC) | MIC ([4]; Escherichia coli, KUB No. 5558, AR Bank # 61, KPC-3 (line continued in Table 8-2), read-out: MIC)
0.25 µg/mL: MIC ([4]; Enterobacter cloacae, KUB No. 5562, AR Bank # 65, no carbapenemase gene, read-out: MIC)
0.5 µg/mL: MIC ([4]; Enterobacter cloacae, KUB No. 5547, AR Bank # 50, KPC-4, read-out: MIC) | MIC ([4]; Enterobacter cloacae, KUB No. 5763, AR Bank# 367, no carbapenemase genes, read-out: MIC) | MIC ([4]; Enterobacter cloacae, KUB No. 5807, AR Bank# 501, VIM-1, read-out: MIC)
2 µg/mL: MIC [3] | MIC ([4]; Enterobacte (name cut at the end of the table), KUB No. 5629, AR Bank # 132, NMC (cut), read-out: MIC) | MIC ([4]; Enterobacter cloacae, KUB No. 5550, AR Bank # 53, KPC-3, read-out: MIC) | MIC ([4]; Enterobacter cloacae, KUB No. 5761, AR Bank# 365, KPC-2, read-out: MIC) | MIC ([4]; Escherichia coli, KUB No. 5611, AR Bank # 114, KPC-3, read-out: MIC)
